The subject of one series is HepG2 human cells. Details: method as in http://dx.doi.org/10.6019/CHEMBL3507680. To be noted: ref http://dx.doi.org/10.6019/CHEMBL3507680; cited from earlier work.
Series [1] addresses T1, recombinant luciferase (Photinus pyralis) (Photinus pyralis, UniProt P08659).
T1 construct: purchased Promega E1701
Put plainly: Recombinant luciferase inhibition assay. The class given is biochemical. As to the method: A counter-screen to the P. berghei liver stage assay was run against recombinant luciferase (Photinus pyralis) to measure the intrinsic bioluminescence inhibition from select compounds. Briefly, compounds were plated in 12-point serial dose response (50–2.82 × 10^−4 µM) in 1536-well opaque-bottom plates (789173-F, Greiner Bio-One). A 20 pM QuantiLum® Recombinant Luciferase (E1701, Promega) containing solution was made in screening media (DMEM, 11965–092, Invitrogen; 5% FBS, 35–011-CV, Corning; 5x Pen Strep Glutamine, 10378–016, Invitrogen), and 8 µl were added to each well. After 1 h incubation at room temperature, 2 µl of Bright-Glo™ (E2610, Promega) were dispensed per well, and bioluminescence was immediately measured using the EnVision microplate reader (PerkinElmer). DMSO (0.5%) and Luciferase Inhibitor-2 (9.8 µM) (119114, MilliporeSigma) served as negative and positive controls, respectively.

Series [2] deals with P. falciparum male gamete formation. As to the kind of experiment: Pf DGFA add-in format, male readout. Format: cell-based, Plasmodium falciparum. To be noted: Plasmodium falciparum; 0h preincubation/add-in. As to the method: (§1) In profiling mode, the Pf DGFA was performed in 96-well plates[23] in wash-out and add-in formats to aid manual manipulation steps. In the wash-out format, gametocytes were incubated for 24 h with test compounds in round-bottomed 96 well plates and then culture medium replaced three times over 6 h, to remove as much of the compound as possible from the well. […] In add-in format, gametocytes were added directly to flat-bottomed 96-well plates containing test compounds, ookinete medium and anti-Pfs25.

Another series has as its system HepG2 cells. As to the kind of experiment: HepG2 toxicity (CellTiter-Glo, parallel to liver stage assay). Format: cell-based, human. As to the method: Compound inhibition of P. berghei sporozoite liver infection was assessed in a high-throughput luciferase assay. 1536-well plates (789173-F, Greiner Bio-One) were pre-seeded with 5 µl HepG2-A16-CD81^EGFP cells grown in DMEM (11965–092, Invitrogen) containing 10% FBS (35–011-CV, Corning) and 1× Pen Strep Glutamine (10378–016, Invitrogen). Then, 50 nl of compound in DMSO was dispensed in 12-point serial dilution dose-response format (50 µM to 2.82 × 10^−4 µM), and incubated overnight.A. stephensi mosquitoes infected with P. berghei-ANKA-GFP-Luc-SMCON (Pb-Luc)[41] sporozoites bearing the antifolate-resistance-conferring Toxoplasma gondii dihydrofolate reductase-thymidylate synthase selectable marker, pyR2. After dissection, ~1000 sporozoites in 5 µl screening media (DMEM, 11965–092, Invitrogen; 5% FBS, 35–011-CV, Corning; 5x Pen Strep Glutamine, 10378–016, Invitrogen) were added per well and incubated for 48 h (37 °C, 5% CO2). Bioluminescence was measured using an EnVision microplate reader (Perkin Elmer), following the addition of 2 µl per well of Bright-Glo™ (Promega). Compound toxicity against HepG2 cells was determined in parallel by measuring cellular ATP levels reported by luciferase activity. Methods were similar to the P. berghei liver stage assay, except for the addition of CellTiter-Glo® (Promega) as a detection reagent. DMSO (0.5%) was used as a negative control in both assays, with Atovaquone (5 µM) and Puromycin (10 µM) acting as positive controls in the P. berghei and toxicity assays, respectively.
On the technique in general: In ATP-based viability assays light output follows the ATP content of the culture.

The test system of series [3] is P. falciparum female gamete formation. Put plainly: Pf DGFA add-in format, female readout. The class given is cell-based. The settings on record: Plasmodium falciparum; 0h preincubation/add-in. As to the method: as §1
Series [4] relates to P. berghei strain CTRPpGFP early mosquito stage (ookinete) development. Put plainly: P. berghei ookinete development assay (Pb ODA). The settings on record: Plasmodium berghei; 24h incubation. The class given is cell-based, Plasmodium berghei. As to the method: All mouse procedures were performed in accordance with the UK Animals (Scientific Procedures) Act (PPL 70/7185) and approved by the Imperial College Animal Welfare and Ethical Review Body (AWERB). The ability of test compounds to inhibit P. berghei early mosquito stage development was tested in the Ookinete Development Assay[37] with a few exceptions. Anaesthetised 6- to 8-week-old female Tucks Ordinary (TO) mice infected with P. berghei strain CTRPpGFP[38] were rapidly exsanguinated by cardiac puncture and 500 µl of blood diluted in 25 ml of ookinete medium supplemented with 20% foetal bovine serum. Immediately the blood/medium mixture was dispensed by multichannel pipette into 384 well plates containing pre-plated test compounds. 10 µM cycloheximide and DMSO were used as the positive and negative controls, respectively. Plates were stored in the dark in a humidified incubator at 18 °C for 24 h. Ookinete production was imaged by fluorescence microscopy of GFP expression under the ookinete-specific CTRP promoter using a Nikon Ti-E widefield microscope and ×10 objective. Ookinete production was quantified using ICY and percentage inhibition calculated as above with reference to positive and negative controls.

Series [5] relates to P. falciparum stage V male gametocytes (male gamete formation). Put plainly: P. falciparum dual gamete formation assay (Pf DGFA), male readout (exflagellation), 48 h carry-over format. The settings on record: Plasmodium falciparum, 24h preincubation/carry-over. Format: cell-based, Plasmodium falciparum NF54.
Setting [6] is: 1h incubation, read-out: Recombinant luciferase assay IC50.

Where two headings read alike, the source gives them in different places. Where only a bound is given, the exact number is not on record here.

Usually IC50 stands for the midpoint of a concentration-inhibition curve.

T1 sequence (P08659 whole entry): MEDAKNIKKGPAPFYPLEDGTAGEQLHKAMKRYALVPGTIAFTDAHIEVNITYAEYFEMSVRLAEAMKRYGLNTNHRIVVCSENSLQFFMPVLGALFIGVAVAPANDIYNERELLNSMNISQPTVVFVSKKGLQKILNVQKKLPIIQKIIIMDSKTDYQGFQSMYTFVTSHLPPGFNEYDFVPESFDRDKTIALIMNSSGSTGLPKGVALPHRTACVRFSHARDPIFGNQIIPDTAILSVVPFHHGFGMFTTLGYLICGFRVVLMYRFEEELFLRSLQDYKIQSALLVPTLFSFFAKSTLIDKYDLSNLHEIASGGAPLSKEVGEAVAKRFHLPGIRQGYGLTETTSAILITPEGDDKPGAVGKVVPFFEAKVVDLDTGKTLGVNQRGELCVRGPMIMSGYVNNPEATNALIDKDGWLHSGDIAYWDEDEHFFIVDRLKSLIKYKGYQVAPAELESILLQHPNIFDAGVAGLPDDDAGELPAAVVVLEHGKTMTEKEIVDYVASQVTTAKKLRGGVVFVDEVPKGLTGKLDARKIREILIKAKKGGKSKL

With `Cc1cc(C)c(CNCC(O)c2ccc(F)c(F)c2)c(C)c1.Cl` (stereo not drawn) [DDD01065539], the “%Inh HepG2 @10uM” value with HepG2 human cells was -11.40%. Further, the IC50 in series [1] was above 50 µM; in series [2], above 10 µM; in series [3], above 10 µM; in series [4] it was above 12.5 µM; in series [5], above 12.5 µM. Moreover, the “Human HepG2 assay TOX50” value with HepG2 cells (48h incubation) came to 36.6 µM.

As for `CC(NCC1CCN(CCO)CC1)c1ccc(OC(F)(F)F)cc1` (stereo not drawn) [DDD01073716], the “%Inh HepG2 @10uM” value in the series with HepG2 human cells is on record as -2.01%. The IC50 in series [1] (setting [6]) was above 50 µM; in series [2], above 10 µM; in series [3], above 10 µM; in series [4], above 25 µM; in series [5] it was 11 µM. Further, the “Human HepG2 assay TOX50” value with HepG2 cells (human, 48 h) was above 50.0 µM.

Turning to `CN(Cc1cccc(F)c1)C(=O)CS(=O)(=O)Cc1c(Cl)cccc1Cl` [DDD01077188], the “%Inh HepG2 @10uM” value in the series with HepG2 human cells is reported as 5.76%. For the same compound, the IC50 in series [1] (setting [6]) was above 50 µM; in series [2], above 10 µM; in series [3], above 10 µM; in series [4] it was above 12.5 µM; in series [5], above 12.5 µM. Also, in the series on HepG2 cells (human, 48 h), the “Human HepG2 assay TOX50” value was above 50.0 µM.

Regarding `CN1CCC(NCC(O)c2cccc(OCc3ccccc3)c2)CC1` (stereo not drawn) [DDD01079164], in the series with HepG2 human cells, the “%Inh HepG2 @10uM” value is 4.18%. Also, the IC50 in series [1] (setting [6]) is above 50 µM; in series [2], above 10 µM; in series [3], above 10 µM; in series [4], above 25 µM; in series [5] it was 6.04 µM. Moreover, the “Human HepG2 assay TOX50” value in the series with HepG2 cells (human, 48 h) was determined as 38.40 µM.

As to `CNc1cc(C)nc(NC2CCCN(C3Cc4ccccc4C3)C2)n1` (stereo not drawn) [DDD01243506], in the series with HepG2 human cells, the “%Inh HepG2 @10uM” value is reported as 28.56%. The IC50 in series [1] (setting [6]) was above 50 µM; in series [1] (read-out: Recombinant luciferase IC50), at least 50 µM; in series [2], above 10 µM; in series [3], above 10 µM; in series [4], above 12.5 µM; in series [5], above 12.5 µM. The “HepG2 TOX50” value in the series with HepG2 cells (human, 48 h) is on record as at least 50 µM. In the series on HepG2 cells (human, 48 h), the “Human HepG2 assay TOX50” value is on record as above 50.0 µM.

Consider `OC1(CN2CCC(Oc3cccc(C(F)(F)F)c3)CC2)CCNC1` (stereo not drawn) [DDD01245291], for which, in the series on HepG2 human cells, the “%Inh HepG2 @10uM” value is listed as -7.31%. In addition, the IC50 in series [1] (setting [6]) is above 50 µM; in series [2], above 10 µM; in series [3] it was above 10 µM; in series [4], above 25 µM; in series [5], 5.99 µM. In the series on HepG2 cells (human, 48 h), the “Human HepG2 assay TOX50” value is 21.70 µM.

As to `CC(c1cccs1)N(C)Cc1cnc(-c2ccccn2)nc1` (stereo not drawn) [DDD01246628], in the series on HepG2 human cells, the “%Inh HepG2 @10uM” value is reported as 3.52%. Also, the IC50 was 4.28 µM in series [1] (setting [6]); above 10 µM in series [2]; above 10 µM in series [3]; above 25 µM in series [4]; above 25 µM in series [5]. Moreover, the “Human HepG2 assay TOX50” value with HepG2 cells (human, 48 h) amounted to 11.30 µM.

In the case of `CC(C)CN1CCn2nc(CNc3ncnc4[nH]ccc34)cc2C1` [DDD01249504], the “%Inh HepG2 @10uM” value with HepG2 human cells is 7.26%. For the same compound, the IC50 in series [1] (setting [6]) was above 50 µM; in series [2], above 10 µM; in series [3], above 10 µM; in series [4] it was above 25 µM; in series [5] it was 1.83 µM. Further, the “Human HepG2 assay TOX50” value in the series on HepG2 cells (human, 48 h) is listed as above 50.0 µM.

As for `CCCn1nccc1C(=O)N1CCN(C2CCc3ccccc3C2)CC1` (stereo not drawn) [DDD01251134], the “%Inh HepG2 @10uM” value in the series on HepG2 human cells was -7.89%. Further, the half-inhibitory concentration (IC50) in series [1] (setting [6]) is above 50 µM; in series [2], above 10 µM; in series [3] it was above 10 µM; in series [4], above 12.5 µM; in series [5] it was above 12.5 µM. Moreover, in the series on HepG2 cells (human, 48 h), the “Human HepG2 assay TOX50” value is recorded as above 50.0 µM.

For `Cc1nn(C)c(Oc2ccc(Cl)cc2)c1CN1CCC(CN)C1` (stereo not drawn) [DDD01254274], in the series with HepG2 human cells, the “%Inh HepG2 @10uM” value is reported as -8.55%. For the same compound, the IC50 in series [1] (setting [6]) was above 50 µM; in series [2], above 10 µM; in series [3], above 10 µM; in series [4], above 25 µM; in series [5], above 25 µM. Besides, in the series on HepG2 cells (human, 48 h), the “Human HepG2 assay TOX50” value was above 50.0 µM.
